The assay deals with T1, Spleen tyrosine kinase (Syk) (Homo sapiens, UniProt P43405).
T1 construct: Syk (ab60886)
Kind of assay: ADP-Glo luminescent kinase assay with dose-response ([…] ATP in substrate solution, poly Glu:Tyr […]). In kind it is biochemical.

The text below walks through data of article PMC6320911, “Discovery of a Natural Syk Inhibitor from Chinese Medicine through a Docking-Based Virtual Screening and Biological Assay Study” (Molecules, 2018).

In the case of `Cc1coc2c1C(=O)C(=O)c1c-2ccc2c(C)cccc12` [compound 13, Tanshinone I], the half-inhibitory concentration (IC50) turned out to be 1640 nM.
